Experimental data reported in patent publication US9877980B2, “Method and composition for treatment or prevention of type 2 diabetes and hyperlipidemia” (Chun-Ching Shih, priority 2016, dated 2018).
Marks after values point to notes of the source that are not given here.

Legend:
Format in all cases: in vivo
[1] = test system: C57BL/6J mice on high-fat diet (HFD); test: Hepatic lipids in HFD mice; conditions: 4 weeks
Method: (§1) The following experiment was performed and approved by the guidelines of the Institutional Animal Care and Use Committee of Central Taiwan University of Science and Technology. The 4-week old male C57BL/6J mice (total amount n=63) were purchased from the National Laboratory Animal Breeding and Research Center (Taipei, Taiwan). After acclimatization for one week, all of the mice were divided randomly into the control (CON) group and the high-fat diet (HFD) group. For the following 12 weeks, the CON group (n=9) was kept on a low-fat diet (Diet 12450B, Research Diets, Inc., New Brunswick, N.J., USA), while the HFD group (n=54) was exposed to a high-fat diet (Diet 12451, Research Diets, New Brunswick, N.J., USA). The low-fat diet was composed of protein 20%, carbohydrate 70% and fat 10%, whereas the high-fat diet was composed of protein 20%, carbohydrate 35%, and fat 45% (of total energy, % kcal). After HFD exposure for 8 weeks, the HFD group was further randomly subdivided into 6 groups (n=9 per group) to receive different treatments by oral gavage once daily for four weeks and on HFD. […] The HF+B1, HF+B2, and […] are collectively termed BB-treated HFD groups in the following examples. The CON mice were administered vehicle. After dosing for 4 weeks, the mice were given no food at night and sacrificed after 12 h of fasting on the next day. All of the individual tissues were collected and weighed, and portions were instantly frozen using liquid nitrogen and kept at −80° C. for subsequent target gene analysis. Blood samples (0.8 mL) were collected for analysis of blood parameters.
For hepatic lipid extraction, a 0.375 g liver samples were homogenized with 1 mL distill water for 5 minutes. The dried pellet was finally resuspended in 0.5 mL ethanol and analyzed using a triglycerides kit as used for analyzing the serum lipids set forth above.

adiponectin = test: Semi-quantitative RT-PCR of liver mRNA: adiponectin; conditions: HFD mice; 40 mg/kg/day oral gavage, 4 weeks; vs HF group
Method: The following experiment was performed and approved by the guidelines of the Institutional Animal Care and Use Committee of Central Taiwan University of Science and Technology. The 4-week old male C57BL/6J mice (total amount n=63) were purchased from the National Laboratory Animal Breeding and Research Center (Taipei, Taiwan). After acclimatization for one week, all of the mice were divided randomly into the control (CON) group and the high-fat diet (HFD) group. […] After HFD exposure for 8 weeks, the HFD group was further randomly subdivided into 6 groups (n=9 per group) to receive different treatments by oral gavage once daily for four weeks and on HFD. […] The HF+B1, HF+B2, and […] are collectively termed BB-treated HFD groups in the following examples. […]
Total RNA from liver tissue of mice was isolated with a Trizol Reagent (Molecular Research Center, Inc., Cincinnati, Ohio, USA) according to the manufacturer's instructions. The integrity of the extracted total RNA was examined by 2% agarose gel electrophoresis, and the RNA concentration was determined by the ultraviolet (UV) light absorbency at 260 nm and 280 nm (Spectrophotometer U-2800A, Hitachi). […]
Levels of mRNA of genes of interest were quantified by semi-quantitative reverse transcription polymerase chain reaction (RT-PCR). […] PCR products were analyzed by 2% agarose gels and stained with ethidium bromide.

GLUT4 = test: Western blotting of membrane GLUT4 in skeletal muscle; conditions: HFD mice, 4 weeks, vs HF group
Method: as §1, with “For the following 12 weeks, the CON group (n=9) was kept on a low-fat diet (Diet 12450B, Research Diets, Inc., New Brunswick, N.J., USA), while the HFD group (n=54) was exposed to a high-fat diet (Diet 12451, Research Diets, New Brunswick, N.J., USA). The low-fat diet was composed of protein 20%, carbohydrate 70% and fat 10%, whereas the high-fat diet was composed of protein 20%, carbohydrate 35%, and fat 45% (of total energy, % kcal).” left out
The protein concentration in supernatant was determined with a BCA protein assay kit (Thermo Scientific, Rockford, Ill., USA). […] Immunoreactive bands were detected with ECL reagent kit (GE Healthcare BioSciences, Buckinghamshire, UK).

SMILES: OCC1O[C@@H](O[C@@H]2Cc3c(O)cc(O)cc3O[C@@H]2c2ccc(O)c(O)c2)C(O)C(O)[C@@H]1O (single isomer, unassigned; (-)) [compound of formula I, (−)-epicatechin-3-O-β-D-allopyranoside]
- Liver lipids Total lipid ([1]; 10 mg/kg/day oral gavage): 71.9 ± 6.5^d mg/g
- Liver lipids Triacylglycerol ([1]; 10 mg/kg/day oral gavage): 49.9 ± 8.0^d μmol/g
- Liver lipids Total lipid ([1]; 20 mg/kg/day oral gavage): 66.1 ± 6.9^e mg/g
- Liver lipids Triacylglycerol ([1]; 20 mg/kg/day oral gavage): 42.8 ± 6.5^f μmol/g
- Liver lipids Total lipid ([1]; 40 mg/kg/day oral gavage): 60.2 ± 5.2^f mg/g
- Liver lipids Triacylglycerol ([1]; 40 mg/kg/day oral gavage): 40.8 ± 4.6^f μmol/g
- liver adiponectin mRNA level (adiponectin): enhanced
- protein level of GLUT4 at the plasma membrane (GLUT4; 10 mg/kg/day oral gavage): significantly enhanced
- protein level of GLUT4 at the plasma membrane (GLUT4; 20 mg/kg/day oral gavage): significantly enhanced
- protein level of GLUT4 at the plasma membrane (GLUT4; 40 mg/kg/day oral gavage): significantly enhanced
